IC50 and Kd data for two compounds are collected here from ChEMBL document CHEMBL1133500, “Active site binding modes of HIV-1 integrase inhibitors” (J Med Chem, 2000).

Each structure is given as a SMILES string. A value given as a limit tells only on which side of the number the result lay.

Experiment [1] is described as follows: Inhibitory activity against ASV (avian sarcoma virus) integrase; Range 40-350 uM.
The target of experiment [2] is T1, Human immunodeficiency virus type 1 integrase (Human immunodeficiency virus 1, UniProt Q7ZJM1).
T1 sequence (Q7ZJM1 whole entry): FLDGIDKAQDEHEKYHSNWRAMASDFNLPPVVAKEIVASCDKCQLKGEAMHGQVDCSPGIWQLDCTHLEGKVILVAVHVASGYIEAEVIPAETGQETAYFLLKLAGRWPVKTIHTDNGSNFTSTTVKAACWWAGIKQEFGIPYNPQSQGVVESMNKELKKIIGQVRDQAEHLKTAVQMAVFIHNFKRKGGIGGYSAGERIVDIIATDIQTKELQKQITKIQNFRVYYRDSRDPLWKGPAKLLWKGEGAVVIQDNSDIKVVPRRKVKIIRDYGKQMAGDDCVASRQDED
The target of experiment [3] is T1, Human immunodeficiency virus type 1 integrase. This is another data set of the same source.

Consider `CC(=O)Nc1cc(S(=O)(=O)O)cc2cc(S(=O)(=O)O)cc(O)c12`, for which the IC50 (usually the concentration that gives 50% inhibition) in experiment [1] is less than 350 µM. In turn, `O=C1c2ccc(O)c(O)c2C(=O)c2c(O)ccc(O)c21` [QUINALIZARIN] registered an IC50 in experiment [2] of less than 17 µM. In addition, the Kd (in general, a measure of binding affinity in units of concentration) in experiment [3] was less than 15 µM.
